Patent US6355799B1, “Substituted benzene compounds, process for their preparation, and herbicidal and defoliant compositions containing them” (ISK Americas Incorporated, priority 1997, dated 2002)

What was measured:
Format in all cases: in vivo
[1] = tested on: field corn (Zea mays L., var. Dekalb 535, CORN); test: Pre-emerge test, crop safety; conditions: pre-emerge, 14 days after application, scale 0-100
Outline: (§1)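 Sandy loam pots; pre-emerge: sown 1 d pre-spray, surface-watered after, then bottom-watered. Post-emerge: sown 8–21 d before, 2–3 leaf stage, + 0.25% v/v NIS, bottom-watered. Acetone, 187 l/ha track spray, 15–1000 g ai/ha. 0–100 injury score, day 14.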

[2] = tested on: upland rice (Oryza sp., var. Tebonnet, RICE); test: Pre-emerge test, crop safety; conditions: pre-emerge, 14 days after application, scale 0-100
Outline: as §1

[3] = tested on: field corn (Zea mays L., var. Dekalb 535, CORN); test: Post-emerge test, crop safety; conditions: post-emerge, 14 days after application, rating scale 0-100
Outline: (§2)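 Applied at 15–1000 g ai/ha from acetone in 187 l/ha spray volume. Post-emergence applications included 0.25% v/v non-ionic surfactant and reached plants sown 8–21 days before. Pre-emergence applications were incorporated by surface watering. Efficacy or crop damage was rated on a 0–100 scale after 14 days.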

[4] = tested on: upland rice (Oryza sp., var. Tebonnet, RICE); test: Post-emerge test, crop safety; conditions: post-emerge, 14 days after application, rating scale 0-100
Outline: as §2

[5] = tested on: sicklepod (Cassia obtusifolia, CASOB); test: Post-emerge test, greenhouse herbicide activity screening; conditions: post-emerge, 14 days after application, rating scale 0-100
Outline: (§3)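 Visual ratings on a 0-100 scale (0 no damage, 100 all plants dead) were taken at 14 days after treatment. Rates of 15-1000 g ai/ha in acetone, 187 l/ha, were sprayed onto soil one day after planting (pre-emerge) or onto 2-3 leaf plants with 0.25% v/v surfactant (post-emerge).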

[6] = tested on: ivyleaf morningglory (Ipomoea hederacea, IPOHE); test: as above; conditions: post-emerge, 14 days after application, rating scale 0-100
Outline: as §3

[7] = tested on: barnyardgrass (Echinochloa crus-galli, ECHCG); test: as above; conditions: post-emerge, 14 days after application, rating scale 0-100
Outline: as §3

[8] = tested on: redroot pigweed (Amaranthus retroflexus, AMARE); test: as above; conditions: post-emerge, 14 days after application, rating scale 0-100
Outline: as §3

[9] = tested on: green foxtail (Setaria viridis, SETVI); test: as above; conditions: post-emerge, 14 days after application, rating scale 0-100
Outline: as §3

[10] = tested on: lambsquarters (Chenopodium album, CHEAL); test: as above; conditions: post-emerge, 14 days after application, rating scale 0-100
Outline: as §3

[11] = tested on: large crabgrass (Digitaria sanguinalis, DIGSA); test: as above; conditions: post-emerge, 14 days after application, rating scale 0-100
Outline: as §3

[12] = tested on: velvetleaf (Abutilon theophrasti, ABUTH); test: as above; conditions: post-emerge, 14 days after application, rating scale 0-100
Outline: as §3

[13] = tested on: redroot pigweed (Amaranthus retroflexus, AMARE); test: Pre-emerge test, greenhouse herbicide activity screening; conditions: pre-emerge, 14 days after application, scale 0-100
Outline: as §3

[14] = tested on: johnsongrass (Sorghum halepense, SORHA); test: as above; conditions: pre-emerge, 14 days after application, scale 0-100
Outline: as §2

[15] = tested on: sicklepod (Cassia obtusifolia, CASOB); test: as above; conditions: pre-emerge, 14 days after application, scale 0-100
Outline: as §2

[16] = tested on: ivyleaf morningglory (Ipomoea hederacea, IPOHE); test: as above; conditions: pre-emerge, 14 days after application, scale 0-100
Outline: as §2

[17] = tested on: barnyardgrass (Echinochloa crus-galli, ECHCG); test: as above; conditions: pre-emerge, 14 days after application, scale 0-100
Outline: as §2

[18] = tested on: green foxtail (Setaria viridis, SETVI); test: as above; conditions: pre-emerge, 14 days after application, scale 0-100
Outline: as §2

[19] = tested on: lambsquarters (Chenopodium album, CHEAL); test: as above; conditions: pre-emerge, 14 days after application, scale 0-100
Outline: as §2

[20] = tested on: large crabgrass (Digitaria sanguinalis, DIGSA); test: as above; conditions: pre-emerge, 14 days after application, scale 0-100
Outline: as §2

[21] = tested on: velvetleaf (Abutilon theophrasti, ABUTH); test: as above; conditions: pre-emerge, 14 days after application, scale 0-100
Outline: as §2

Cn1c(C(F)(F)F)cc(=O)n(-c2ccc(Cl)cc2NC(=O)C=Cc2ccccc2)c1=O [2-137]
phytotoxicity rating CORN (crop damage) ([1]; 63 g ai/ha): 0
phytotoxicity rating CORN (crop damage) ([1]; 250 g ai/ha): 10
phytotoxicity rating RICE (crop damage) ([2]; 63 g ai/ha): 20
phytotoxicity rating RICE (crop damage) ([2]; 250 g ai/ha): 50
CORN phytotoxicity rating (crop damage) ([3]; 63 g ai/ha): 10
CORN phytotoxicity rating (crop damage) ([3]; 250 g ai/ha): 60
RICE phytotoxicity rating (crop damage) ([4]; 63 g ai/ha): 10
RICE phytotoxicity rating (crop damage) ([4]; 250 g ai/ha): 70
CASOB phytotoxicity rating ([5]; 63 g ai/ha): 100
CASOB phytotoxicity rating ([5]; 250 g ai/ha): 90
IPOHE phytotoxicity rating ([6]; 63 g ai/ha): 100
IPOHE phytotoxicity rating ([6]; 250 g ai/ha): 90
ECHCG phytotoxicity rating ([7]; 63 g ai/ha): 0
ECHCG phytotoxicity rating ([7]; 250 g ai/ha): 30
AMARE phytotoxicity rating ([8]; 63 g ai/ha): 100
AMARE phytotoxicity rating ([8]; 250 g ai/ha): 100
SETVI phytotoxicity rating ([9]; 63 g ai/ha): 10
SETVI phytotoxicity rating ([9]; 250 g ai/ha): 30
CHEAL phytotoxicity rating ([10]; 63 g ai/ha): 100
CHEAL phytotoxicity rating ([10]; 250 g ai/ha): 100
DIGSA phytotoxicity rating ([11]; 63 g ai/ha): 0
DIGSA phytotoxicity rating ([11]; 250 g ai/ha): 10
ABUTH phytotoxicity rating ([12]; 63 g ai/ha): 100
ABUTH phytotoxicity rating ([12]; 250 g ai/ha): 100
phytotoxicity rating AMARE ([13]; 63 g ai/ha): 100
phytotoxicity rating AMARE ([13]; 250 g ai/ha): 100
phytotoxicity rating SORHA ([14]; 63 g ai/ha): 0
phytotoxicity rating SORHA ([14]; 250 g ai/ha): 70
phytotoxicity rating CASOB ([15]; 63 g ai/ha): 50
phytotoxicity rating CASOB ([15]; 250 g ai/ha): 50
phytotoxicity rating IPOHE ([16]; 63 g ai/ha): 30
phytotoxicity rating IPOHE ([16]; 250 g ai/ha): 30
phytotoxicity rating ECHCG ([17]; 63 g ai/ha): 10
phytotoxicity rating ECHCG ([17]; 250 g ai/ha): 50
phytotoxicity rating SETVI ([18]; 63 g ai/ha): 30
phytotoxicity rating SETVI ([18]; 250 g ai/ha): 60
phytotoxicity rating CHEAL ([19]; 63 g ai/ha): 100
phytotoxicity rating CHEAL ([19]; 250 g ai/ha): 100
phytotoxicity rating DIGSA ([20]; 63 g ai/ha): 50
phytotoxicity rating DIGSA ([20]; 250 g ai/ha): 100
phytotoxicity rating ABUTH ([21]; 63 g ai/ha): 80
phytotoxicity rating ABUTH ([21]; 250 g ai/ha): 100

Cn1c(C(F)(F)F)cc(=O)n(-c2ccc(C#N)cc2NC(=O)c2ccc3ccccc3c2)c1=O [2-140]
phytotoxicity rating CORN (crop damage) ([1]; 63 g ai/ha): 0
phytotoxicity rating CORN (crop damage) ([1]; 250 g ai/ha): 15
phytotoxicity rating RICE (crop damage) ([2]; 63 g ai/ha): 30
phytotoxicity rating RICE (crop damage) ([2]; 250 g ai/ha): 85
CORN phytotoxicity rating (crop damage) ([3]; 63 g ai/ha): 10
CORN phytotoxicity rating (crop damage) ([3]; 250 g ai/ha): 70
RICE phytotoxicity rating (crop damage) ([4]; 63 g ai/ha): 50
RICE phytotoxicity rating (crop damage) ([4]; 250 g ai/ha): 80
CASOB phytotoxicity rating ([5]; 63 g ai/ha): 100
CASOB phytotoxicity rating ([5]; 250 g ai/ha): 100
IPOHE phytotoxicity rating ([6]; 63 g ai/ha): 100
IPOHE phytotoxicity rating ([6]; 250 g ai/ha): 100
ECHCG phytotoxicity rating ([7]; 63 g ai/ha): 30
ECHCG phytotoxicity rating ([7]; 250 g ai/ha): 85
AMARE phytotoxicity rating ([8]; 63 g ai/ha): 100
AMARE phytotoxicity rating ([8]; 250 g ai/ha): 100
SETVI phytotoxicity rating ([9]; 63 g ai/ha): 40
SETVI phytotoxicity rating ([9]; 250 g ai/ha): 60
CHEAL phytotoxicity rating ([10]; 63 g ai/ha): 100
CHEAL phytotoxicity rating ([10]; 250 g ai/ha): 100
DIGSA phytotoxicity rating ([11]; 63 g ai/ha): 20
DIGSA phytotoxicity rating ([11]; 250 g ai/ha): 65
ABUTH phytotoxicity rating ([12]; 63 g ai/ha): 100
ABUTH phytotoxicity rating ([12]; 250 g ai/ha): 100
phytotoxicity rating AMARE ([13]; 63 g ai/ha): 100
phytotoxicity rating AMARE ([13]; 250 g ai/ha): 100
phytotoxicity rating SORHA ([14]; 63 g ai/ha): 10
phytotoxicity rating SORHA ([14]; 250 g ai/ha): 60
phytotoxicity rating CASOB ([15]; 63 g ai/ha): 40
phytotoxicity rating CASOB ([15]; 250 g ai/ha): 100
phytotoxicity rating IPOHE ([16]; 63 g ai/ha): 10
phytotoxicity rating IPOHE ([16]; 250 g ai/ha): 100
phytotoxicity rating ECHCG ([17]; 63 g ai/ha): 40
phytotoxicity rating ECHCG ([17]; 250 g ai/ha): 80
phytotoxicity rating SETVI ([18]; 63 g ai/ha): 50
phytotoxicity rating SETVI ([18]; 250 g ai/ha): 80
phytotoxicity rating CHEAL ([19]; 63 g ai/ha): 100
phytotoxicity rating CHEAL ([19]; 250 g ai/ha): 100
phytotoxicity rating DIGSA ([20]; 63 g ai/ha): 40
phytotoxicity rating DIGSA ([20]; 250 g ai/ha): 95
phytotoxicity rating ABUTH ([21]; 63 g ai/ha): 100
phytotoxicity rating ABUTH ([21]; 250 g ai/ha): 100

Cn1c(C(F)(F)F)cc(=O)n(-c2ccccc2NC(=O)c2ccc3ccccc3c2)c1=O [2-142]
phytotoxicity rating CORN (crop damage) ([1]; 63 g ai/ha): 0
phytotoxicity rating CORN (crop damage) ([1]; 250 g ai/ha): 0
phytotoxicity rating RICE (crop damage) ([2]; 63 g ai/ha): 0
phytotoxicity rating RICE (crop damage) ([2]; 250 g ai/ha): 0
CORN phytotoxicity rating (crop damage) ([3]; 63 g ai/ha): 10
CORN phytotoxicity rating (crop damage) ([3]; 250 g ai/ha): 15
RICE phytotoxicity rating (crop damage) ([4]; 63 g ai/ha): 10
RICE phytotoxicity rating (crop damage) ([4]; 250 g ai/ha): 0
CASOB phytotoxicity rating ([5]; 63 g ai/ha): 0
CASOB phytotoxicity rating ([5]; 250 g ai/ha): 10
IPOHE phytotoxicity rating ([6]; 63 g ai/ha): 0
IPOHE phytotoxicity rating ([6]; 250 g ai/ha): 50
ECHCG phytotoxicity rating ([7]; 63 g ai/ha): 0
ECHCG phytotoxicity rating ([7]; 250 g ai/ha): 0
AMARE phytotoxicity rating ([8]; 63 g ai/ha): 0
AMARE phytotoxicity rating ([8]; 250 g ai/ha): 40
SETVI phytotoxicity rating ([9]; 63 g ai/ha): 0
SETVI phytotoxicity rating ([9]; 250 g ai/ha): 0
CHEAL phytotoxicity rating ([10]; 63 g ai/ha): 20
CHEAL phytotoxicity rating ([10]; 250 g ai/ha): 60
DIGSA phytotoxicity rating ([11]; 63 g ai/ha): 0
DIGSA phytotoxicity rating ([11]; 250 g ai/ha): 0
ABUTH phytotoxicity rating ([12]; 63 g ai/ha): 0
ABUTH phytotoxicity rating ([12]; 250 g ai/ha): 40
phytotoxicity rating AMARE ([13]; 63 g ai/ha): 0
phytotoxicity rating AMARE ([13]; 250 g ai/ha): 40
phytotoxicity rating SORHA ([14]; 63 g ai/ha): 0
phytotoxicity rating SORHA ([14]; 250 g ai/ha): 0
phytotoxicity rating CASOB ([15]; 63 g ai/ha): 0
phytotoxicity rating CASOB ([15]; 250 g ai/ha): 0
phytotoxicity rating IPOHE ([16]; 63 g ai/ha): 0
phytotoxicity rating IPOHE ([16]; 250 g ai/ha): 0
phytotoxicity rating ECHCG ([17]; 63 g ai/ha): 0
phytotoxicity rating ECHCG ([17]; 250 g ai/ha): 0
phytotoxicity rating SETVI ([18]; 63 g ai/ha): 0
phytotoxicity rating SETVI ([18]; 250 g ai/ha): 0
phytotoxicity rating CHEAL ([19]; 63 g ai/ha): 40
phytotoxicity rating CHEAL ([19]; 250 g ai/ha): 70
phytotoxicity rating DIGSA ([20]; 63 g ai/ha): 0
phytotoxicity rating DIGSA ([20]; 250 g ai/ha): 0
phytotoxicity rating ABUTH ([21]; 63 g ai/ha): 0
phytotoxicity rating ABUTH ([21]; 250 g ai/ha): 0
